Measurements: patent publication US20100113570A1, “PREVENTION AND TREATMENT OF POST-OPERATIVE COGNITIVE DYSFUNCTION” (The General Hospital Corporation, priority 2008, published 2010)

Experiments:
H4-APP cells [1] = experiment: Caspase-3 activation by Western blot (ratio of caspase-3 fragment to FL-caspase-3) in H4-APP cells; format: cell-based, human
Method: (§1) Cell lines. We used naive H4 human neuroglioma cells stably transfected to express full-length APP (FL-APP; H4-APP cells) in the studies. The cells were cultured in DMEM (high glucose) containing 9% heat inactivated fetal calf serum, 100 U/ml penicillin, 100 μg/ml streptomycin, 2 mM L-glutamine, and 200 μg/ml G418.
(§2) Cell treatment. Twenty-one percent O2, 5% CO2, and 2% isoflurane were delivered from an anesthesia machine to a sealed plastic box in a 37° Celsius incubator containing six-well plates seeded with one million cells in 1.5 ml of cell culture media as described in our previous studies (Xie et al., 2006a,b, 2007). Date infrared gas analyzer (Puritan-Bennett, Tewksbury, Mass.) was used to continuously monitor the delivered CO2, O2, and isoflurane concentrations. We treated the cells with 2% isoflurane for 6 h, during which time the cells were incubated in serum-free media. In the interaction studies, the cells were treated with memantine (4 μM) 1 h before the treatment of 2% isoflurane. Low-calcium condition was created by using a calcium-free cell culture media (Invitrogen, Carlsbad, Calif.) and by adding EDTA (10 mM; Sigma-Aldrich, St. Louis, Mo.), a chelating compound (Rekasi et al., 2005), or BAPTA (10 μM; Sigma-Aldrich), an intracellular calcium chelator, to the media. […] These siRNAs and control siRNAs (3′[…]) were obtained from Dharmacon (Lafayette, Colo.). siRNAs were transfected into cells by using electroporation (Amaxa Biosystems, Gaithersburg, Md.) as described by Xie et al. (2005b). Briefly, we mixed 1 million cells, 100 μl of AMAXA electroporation transfection solution, and 10 μl of 20 μM siRNA together and then used the C-9 program in an AMAXA electroporation device for cell transfection. The transfected cells were then placed in one of the six-well plates containing 1.5 ml of cell culture media. The pretreated cells were then exposed to the isoflurane treatment.
Cell lysis and protein amount quantification. Cell pellets were detergent-extracted on ice using immunoprecipitation buffer (10 mM Tris-HCl, pH 7.4, 150 mM NaCl, 2 mM EDTA, 0.5% Nonidet P-40) plus protease inhibitors (1 μg/ml aprotinin, 1 μg/ml leupeptin, 1 μg/ml pepstatin A). The lysates were collected, centrifuged at 12,000 rpm for 10 min, and quantified for total proteins by a BCA protein assay kit (Pierce Technology Corporation, Iselin, N.J.).
Western blot analysis. The harvested cells and brain tissues were subjected to Western blots as described by Xie et al. (2005a). A caspase-3 antibody (1:1000 dilution; Cell Signaling Technology, Beverly, Mass.) was used to recognize caspase-3 fragment (17-20 kDa) resulting from cleavage at asparate position 175 and FL-caspase-3 (35-40 kDa). Caspase-3 cleavage (activation) is based on the ratio of caspase-3 fragment to FL caspase-3. Antibody anti-b-actin was used to visualize b-actin (42 kDa). Antibodies for IP3 receptor (1:1000; Millipore Bioscience Research Reagents, Temecula, Calif.), NR1 (1:1000; PhosphoSolutions, Aurora, Colo.), and SERCA1 (1:1000; Abcam, Cambridge, Mass.) were used to recognize IP3 receptor (250 kDa), NR1 (120 kDa), and SERCA1 (110 kDa). The quantitation of Western blots was performed as described by Xie et al. (2005a). Briefly, the intensity of signals was analyzed by using a Bio-Rad (Hercules, Calif.) image program (Quantity One) and an NIH Image version 1.37v. We quantified the Western blots using two steps.

[2] = Blood pressure and blood gas of anesthetized mice; format: in vivo; conditions: 1.4% isoflurane for 2 h; data not shown
Method: (§3) Mice treatment. The animal protocol was approved by the Massachusetts General Hospital Standing Committee on Animals Sixteen female C57BL/6 mice (5-6 months of age) (The Jackson Laboratory, Bar Harbor, Me.) were randomly assigned to an anesthesia or control group. […] This isoflurane treatment allows the mice to have sufficient exposure to isoflurane while avoiding excessive accumulation of CO2. The control mice (n=8) received 100% oxygen at an identical flow rate for 6 h and 20 min in an identical chamber. The mice breathed spontaneously, and anesthetic and oxygen concentrations were measured continuously (Datex, Puritan-Bennett; Ohmeda PPD, Madison, Wis.). Rectal temperature was measured intermittently, and the temperature of the anesthetizing chamber was controlled to maintain rectal temperature of the animals at 37±0.5° C. Mean arterial blood pressure was measured noninvasive using a tail cuff (CODA2 system; Kent Scientific Corporation, Torrington, Conn.) in the anesthetized mice. […] Mice were killed by decapitation at the end of the experiments, the brain was removed rapidly, and the prefrontal cortex was dissected out and frozen in liquid nitrogen for subsequent processing for the determination of caspase-3activation.

H4-APP cells [3] = experiment: Cytosolic calcium measurement (Fura-2 ratio); format: cell-based, human
Method: Cytosolic calcium measurement. Cytosolic calcium levels were determined as described by Wei et al. (2008). Specifically, H4-APP cells were loaded with Fura-2 (Invitrogen), perfused with Tyrode buffer, and [Ca2+]i transients were recorded as changes in Fura-2 ratio (340/380 nm) using a spectrofluoroscope system (Ionoptix, Milton, Mass.).

caspase-3 = experiment: Caspase-3 activation in brain tissue of naive mice (Western blot); format: in vivo
Method: as §3, with “caspase-3activation. […] Brain tissue lysis and protein amount quantification. […] The lysates were collected, centrifuged at 12,000 rpm for 10 min, and quantified for total proteins by a BCA protein assay kit (Pierce Technology Corporation). Western blot analysis. The harvested cells and brain tissues were subjected to Western blots as described by Xie et al. (2005a). […] Caspase-3 cleavage (activation) is based on the ratio of caspase-3 fragment to FL caspase-3. Antibody anti-b-actin was used to visualize b-actin (42 kDa). […] The quantitation of Western blots was performed as described by Xie et al. (2005a). Briefly, the intensity of signals was analyzed by using a Bio-Rad (Hercules, Calif.) image program (Quantity One) and an NIH Image version 1.37v. We quantified the Western blots using two steps. […] Data were expressed as mean±SD. […]” for “caspase-3activation.”

H4-APP cells [4] = experiment: Cell apoptosis assay (cell death detection ELISA); format: cell-based, human
Method: as §1, §2

MTT cell viability assay = format: cell-based, human; conditions: human, MTT
Method: as §1, §2

H4-APP cells [5] = experiment: MTT cell viability assay; format: cell-based, human
Method: as §1, §2

[6] = isoflurane plus control siRNA, control = 100%
[7] = memantine 4 μM alone vs control conditions

## O=C(O)CN(CC(=O)O)c1ccccc1OCCOc1ccccc1N(CC(=O)O)CC(=O)O [BAPTA, 1,2-bis (o-aminophenoxy)ethane-N,N,N′,N′-tetraacetic acid]
H4-APP cells [1]; BAPTA 10 μM plus 2% isoflurane for 6 h, control = 100%
  caspase-3 activation, BAPTA plus isoflurane: 154%
H4-APP cells [1]; BAPTA plus control condition vs DMSO plus control condition
  caspase-3 activation, BAPTA alone: does not induce caspase-3 activation

## O=C(O)CN(CCN(CC(=O)O)CC(=O)O)CC(=O)O [EDTA, ethylenediaminetetraacetic acid]
H4-APP cells [1]; isoflurane plus low calcium and EDTA (10 mM), H4-APP cells
  reduction in caspase-3 activation compared with isoflurane plus normal calcium: 68%

## FC(F)OC(Cl)C(F)(F)F (centres unmarked) [isoflurane]
[2]
  effect on blood pressure and venous blood gas: did not significantly affect blood pressure and venous blood gas
H4-APP cells [3]; isoflurane 1 mM or 3.5%
  cytosolic calcium levels, isoflurane: can elevate cytosolic calcium levels
H4-APP cells [1]; 2% isoflurane for 6 h alone, H4-APP cells, control = 100%
  caspase-3 activation compared with control conditions: 184%
H4-APP cells [1]; 2% isoflurane for 6 h plus DMSO, control = 100%
  caspase-3 activation, isoflurane plus DMSO (BAPTA experiment): 185%
H4-APP cells [1]; 2% isoflurane for 6 h plus control siRNA, control = 100%
  caspase-3 activation, isoflurane plus control siRNA (NR1 experiment): 168%
H4-APP cells [1]; [6]
  caspase-3 activation, isoflurane plus control siRNA (IP3 receptor experiment): 292%
  caspase-3 activation, isoflurane plus control siRNA (SERCA1 experiment): 194%
caspase-3; three sessions of 1.4% isoflurane for 2 h, prefrontal cortex, control = 100%
  caspase-3 activation in mouse brain compared with control condition: 177%
H4-APP cells [4]; 2% isoflurane for 6 h alone, control = 100%
  cell apoptosis compared with control conditions: 137%
MTT cell viability assay; 2% isoflurane for 6 h, percent of control, read-out: cell viability, isoflurane alone
  viability at 6 h, 2 %: 74%
MTT cell viability assay; 2% isoflurane for 6 h vs control conditions, read-out: reduction in cell viability
  cytotoxicity at 6 h, 2 %: 26%

## CC12CC3CC(C)(C1)CC(N)(C3)C2 [memantine]
H4-APP cells [3]; pretreated with memantine 4 μM, then isoflurane 1 mM or 3.5%
  isoflurane-induced elevation in cytosolic calcium levels, memantine pretreatment: isoflurane failed to increase cytosolic calcium levels
H4-APP cells [1]; memantine 4 μM 1 h before 2% isoflurane for 6 h, H4-APP cells, control = 100%
  caspase-3 activation, memantine plus isoflurane: 101%
H4-APP cells [1]; memantine 4 μM alone vs control conditions, H4-APP cells
  caspase-3 activation, memantine alone: did not induce caspase-3 activation
caspase-3; memantine 20 mg/kg i.p. 1 h before three sessions of 1.4% isoflurane for 2 h, control = 100%
  caspase-3 activation in mouse brain, memantine plus isoflurane: 97%
caspase-3; memantine 20 mg/kg intraperitoneal alone vs control condition
  caspase-3 activation in mouse brain, memantine alone: did not induce caspase-3 activation
H4-APP cells [4]; [7]
  cell apoptosis, memantine alone: had no effects on either cell viability or apoptosis
H4-APP cells [4]; memantine 4 μM plus 2% isoflurane for 6 h, control = 100%
  cell apoptosis, memantine plus isoflurane: 99%
H4-APP cells [5]; [7]
  cell viability, memantine alone: had no effects on either cell viability or apoptosis
H4-APP cells [5]; memantine 4 μM plus 2% isoflurane for 6 h, percent of control, MTT
  cell viability, memantine plus isoflurane: 95%
